The values that follow come from ChEMBL document CHEMBL3779887, “Robenidine Analogues as Gram-Positive Antibacterial Agents” (J Med Chem, 2016).

Holding throughout (type): functional
The subject of assay [1] is Escherichia coli. Briefly: Antibacterial activity against Escherichia coli ATCC 25922 after 20 to 24 hrs.
Assay [2] deals with Pseudomonas aeruginosa. Briefly: Antibacterial activity against Pseudomonas aeruginosa ATCC 27853 after 20 to 24 hrs.
In assay [3] the test system is Escherichia coli. Briefly: Antibacterial activity against Escherichia coli ATCC 25922 after 20 to 24 hrs in presence of polymyxin B nonapeptide.
The subject of assay [4] is Pseudomonas aeruginosa. The assay is described as follows: Antibacterial activity against Pseudomonas aeruginosa ATCC 27853 after 20 to 24 hrs in presence of polymyxin B nonapeptide.
Assay [5] relates to Staphylococcus aureus. The assay is described as follows: Antibacterial activity against methicillin-resistant Staphylococcus aureus after 20 to 24 hrs.
Assay [6] has as its system Enterococcus. The assay is described as follows: Antibacterial activity against vancomycin-resistant Enterococcus after 20 to 24 hrs.
Assay [7] has as its system Staphylococcus aureus. The assay is described as follows: Antibacterial activity against methicillin-resistant Staphylococcus aureus clinical isolate after 20 to 24 hrs.
For assay [8], the system named is Staphylococcus aureus. Briefly: Bactericidal activity against methicillin-resistant Staphylococcus aureus clinical isolate after 24 and 48 hrs.
Assay [9] has as its system Staphylococcus aureus. Briefly: Antibacterial activity against methicillin-sensitive Staphylococcus aureus ATCC 25923 after 20 to 24 hrs.
For assay [10], the system named is Staphylococcus aureus. Briefly: Antibacterial activity against methicillin-sensitive Staphylococcus aureus ATCC 6538 after 20 to 24 hrs.
Assay [11] has as its system Staphylococcus aureus. The assay is described as follows: Antibacterial activity against methicillin-sensitive Staphylococcus aureus ATCC 49775 after 20 to 24 hrs.
The subject of assay [12] is Staphylococcus aureus. The assay is described as follows: Antibacterial activity against methicillin-sensitive Staphylococcus aureus ATCC 29213 after 20 to 24 hrs.
Assay [13] relates to Staphylococcus aureus. The assay is described as follows: Bactericidal activity against methicillin-sensitive Staphylococcus aureus ATCC 25923 after 24 and 48 hrs.
Assay [14] concerns Staphylococcus aureus. Briefly: Bactericidal activity against methicillin-sensitive Staphylococcus aureus ATCC 6538 after 24 and 48 hrs.
The subject of assay [15] is Staphylococcus aureus. The assay is described as follows: Bactericidal activity against methicillin-sensitive Staphylococcus aureus ATCC 49775 after 24 and 48 hrs.
The test system of assay [16] is Staphylococcus aureus. Briefly: Bactericidal activity against methicillin-sensitive Staphylococcus aureus ATCC 29213 after 24 and 48 hrs.

Structures are written as SMILES. ≈ marks a conversion by molar mass, not a printed value.

Turning to `CC(C)/N=c1\cc2n(-c3ccc(Cl)cc3)c3ccccc3nc-2cc1Nc1ccc(Cl)cc1` [CLOFAZIMINE], the MIC90 in assay [1] is over 250 µM; in assay [2], over 250 µM; in assay [3], 4.2 µM; in assay [4] it was 8.4 µM.

`N=C(N/N=C/c1cccc(F)c1)N/N=C/c1cccc(F)c1`: the minimal inhibitory concentration (MIC) in [5] was 47 µM (≈ 14.2 µg/mL); in assay [6], 71 µM (≈ 21.4 µg/mL); in [1], over 400 µM; in [2], over 400 µM.

Turning to `COc1cc(/C=N/NC(=N)N/N=C/c2ccc(O)c(OC)c2)ccc1O`, the MIC in assay [5] was 244 µM (≈ 87.2 µg/mL); in [6] it was 163 µM (≈ 58.3 µg/mL); in [1], over 400 µM; in [2], over 400 µM.

For `N=C(N/N=C/c1ccc(Cl)cc1Cl)N/N=C/c1ccc(Cl)cc1Cl`, the minimum inhibitory concentration (MIC) in [5], in [6], in assay [1] and in [2] was over 400 µM in each case.

`Cc1cccc(/C=N/NC(=N)N/N=C/c2cccc(C)c2)c1`: the minimal inhibitory concentration (MIC) was 24.4 µM (≈ 7.16 µg/mL) in [5], 24.4 µM (≈ 7.16 µg/mL) in assay [6], over 400 µM in [1] and over 400 µM in assay [2].

As for `N=C(N/N=C/c1cccc(O)c1)N/N=C/c1cccc(O)c1`, the MIC in assay [5] is 192 µM (≈ 57.1 µg/mL); in assay [6], 288 µM (≈ 85.6 µg/mL); in [1], over 400 µM; in assay [2] it was over 400 µM.

With `CC(C)c1ccc(/C=N/NC(=N)N/N=C/c2ccc(C(C)C)cc2)cc1`, the MIC was 9.1 µM (≈ 3.18 µg/mL) in [5], 13 µM (≈ 4.54 µg/mL) in assay [6], over 400 µM in assay [1] and over 400 µM in [2].

As to `CC(=O)Nc1ccc(/C=N/NC(=N)N/N=C/c2ccc(NC(C)=O)cc2)cc1`, the MIC in assay [5], in assay [6], in assay [1] and in [2] was over 400 µM each time.

Regarding `N=C(N/N=C/c1ccccc1-c1ccccc1)N/N=C/c1ccccc1-c1ccccc1`, the minimum inhibitory concentration (MIC) in [5], in [6], in assay [1] and in assay [2] was over 400 µM each time.

`CC(=O)Nc1cc(Cl)ccc1/C=N/NC(=N)N/N=C/c1ccc(Cl)cc1NC(C)=O`: the minimal inhibitory concentration (MIC) in assay [5], in assay [6], in assay [1] and in assay [2] was over 400 µM each time.

On to `N=C(N/N=C/c1ccc(O)cc1)N/N=C/c1ccc(O)cc1`, for which the MIC in [5] was 192 µM (≈ 57.1 µg/mL); in assay [6] it was 288 µM (≈ 85.6 µg/mL); in assay [1], over 400 µM; in [2] it was over 400 µM.

Turning to `N=C(N/N=C/c1ccc(O)cc1O)N/N=C/c1ccc(O)cc1O`, the minimum inhibitory concentration (MIC) in [5], in assay [6], in assay [1] and in assay [2] was over 400 µM in each case.

As for `N=C(N/N=C/c1ccc(OC(F)(F)F)cc1)N/N=C/c1ccc(OC(F)(F)F)cc1`, the minimum inhibitory concentration (MIC) was 187 µM (≈ 81 µg/mL) in assay [5], 85 µM (≈ 36.8 µg/mL) in assay [6], over 400 µM in [1] and over 400 µM in assay [2].

On to `CC1(C)S[C@@H]2[C@H](NC(=O)[C@H](N)c3ccccc3)C(=O)N2[C@H]1C(=O)O` [AMPICILLIN], for which the minimal inhibitory concentration (MIC) in assay [5] came out at 183 µM (≈ 63.9 µg/mL); in assay [6], 11.5 µM (≈ 4.02 µg/mL); in assay [1] it was 45.8 µM (≈ 16 µg/mL); in assay [2], 366 µM (≈ 128 µg/mL). In addition, the MIC90 in assay [7], in assay [9], in assay [10], in assay [11] and in [12] was 0.3 µM (≈ 0.105 µg/mL) throughout. Besides, the minimal bactericidal concentration (MBC) in [8], in [13], in assay [14], in assay [15] and in assay [16] was 2 µM (≈ 0.699 µg/mL) throughout.

Consider `COc1ccc(/C=N/NC(=N)N/N=C/c2ccc(OC)c(O)c2)cc1O`, for which the MIC in assay [5], in [6], in assay [1] and in assay [2] was over 400 µM each time.

With `N=C(N/N=C/c1ccccc1O)N/N=C/c1ccccc1O`, the MIC in assay [5] is 36 µM (≈ 10.7 µg/mL); in [6], 240 µM (≈ 71.4 µg/mL); in assay [1] it was over 400 µM; in [2], over 400 µM.

For `CCCc1ccc(/C=N/NC(=N)N/N=C/c2ccc(CCC)cc2)cc1`, the minimum inhibitory concentration (MIC) in assay [5] is 83 µM (≈ 29 µg/mL); in assay [6] it was 73 µM (≈ 25.5 µg/mL); in assay [1] it was over 400 µM; in assay [2] it was over 400 µM.

Turning to `CCCCc1ccc(/C=N/NC(=N)N/N=C/c2ccc(CCCC)cc2)cc1`, the MIC in [5] was 232 µM (≈ 87.6 µg/mL); in assay [6] it was 193 µM (≈ 72.9 µg/mL); in [1] it was over 400 µM; in assay [2], over 400 µM.

With `N=C(N/N=C/c1ccccc1Br)N/N=C/c1ccccc1Br`, the MIC in assay [5], in assay [6], in assay [1] and in assay [2] was over 400 µM each time.

For the molecule `COc1ccc(/C=N/NC(=N)N/N=C/c2ccc(OC)c(OC)c2)cc1OC`, the MIC in assay [5], in assay [6], in assay [1] and in [2] was over 400 µM in each case.

As for `CC(O)Nc1cc(Cl)ccc1/C=N/NC(=N)N/N=C/c1ccc(Cl)cc1NC(C)O` (centres undefined), the MIC in assay [5] was 66 µM (≈ 29.9 µg/mL); in assay [6], 98 µM (≈ 44.3 µg/mL); in assay [1], over 400 µM; in [2] it was over 400 µM.

Turning to `CN(C)c1ccc(/C=N/NC(=N)N/N=C/c2ccc(N(C)C)cc2)cc1`, the MIC in [5] is 30.9 µM (≈ 10.9 µg/mL); in assay [6], 30.9 µM (≈ 10.9 µg/mL); in assay [1], over 400 µM; in assay [2], over 400 µM.

Regarding `N=C(N/N=C/c1ccc(F)c(F)c1)N/N=C/c1ccc(F)c(F)c1`, the minimum inhibitory concentration (MIC) is 40.1 µM (≈ 13.5 µg/mL) in [5], 10.7 µM (≈ 3.61 µg/mL) in [6], over 400 µM in [1] and over 400 µM in assay [2].

On to `N=C(N/N=C/c1ccc(F)cc1)N/N=C/c1ccc(F)cc1`, for which the minimum inhibitory concentration (MIC) in assay [5] was 47 µM (≈ 14.2 µg/mL); in assay [6], 23.7 µM (≈ 7.14 µg/mL); in assay [1] it was over 400 µM; in assay [2], over 400 µM.

Take `CSc1ccc(/C=N/NC(=N)N/N=C/c2ccc(SC)cc2)cc1`: the MIC in assay [5] is 61 µM (≈ 21.8 µg/mL); in assay [6] it was 12.7 µM (≈ 4.54 µg/mL); in assay [1] it was over 400 µM; in assay [2], over 400 µM.

`N=C(N/N=C/c1c(F)c(F)c(F)c(F)c1F)N/N=C/c1c(F)c(F)c(F)c(F)c1F`: the minimum inhibitory concentration (MIC) in [5], in assay [6], in [1] and in [2] was over 400 µM throughout.

As to `N=C(N/N=C/c1ccc(O)c([N+](=O)[O-])c1)N/N=C/c1ccc(O)c([N+](=O)[O-])c1`, the minimum inhibitory concentration (MIC) in assay [5], in [6], in assay [1] and in [2] was over 400 µM each time.

With `Cc1cccc(/C=N/NC(=N)N/N=C/c2cccc(C)c2O)c1O`, the MIC in assay [5], in assay [6], in assay [1] and in assay [2] was over 400 µM each time.

Turning to `N=C(N/N=C/c1cccc(Cl)c1)N/N=C/c1cccc(Cl)c1`, the MIC in assay [5] was 8.1 µM (≈ 2.71 µg/mL); in assay [6] it was 10.8 µM (≈ 3.61 µg/mL); in [1] it was over 400 µM; in assay [2] it was over 400 µM.

For the molecule `N=C(N/N=C/c1cc(F)ccc1F)N/N=C/c1cc(F)ccc1F`, the MIC in assay [5], in [6], in assay [1] and in [2] was over 400 µM each time.

Take `N=C(N/N=C/c1ccc(SC(F)(F)F)cc1)N/N=C/c1ccc(SC(F)(F)F)cc1`: the minimum inhibitory concentration (MIC) in [5] was 96 µM (≈ 44.7 µg/mL); in assay [6] it was 135 µM (≈ 62.8 µg/mL); in assay [1], over 400 µM; in [2] it was over 400 µM.
